According to patent US20060194837A1, “Tetrahydroisoquinoline compounds” (priority 2004, published 2006):
Like-named read-outs stand apart in the source and are kept apart here.

Key:
human H3 receptor = molecular target: T1, human H3 receptor (Homo sapiens, UniProt Q9Y5N1); experiment: H3 receptor binding (N-[3H]-α-methylhistamine displacement); conditions: membranes of SK-N-MC cells expressing cloned human H3 receptor, 0.8 nM N-[3H]-α-methylhistamine, 60 min at 25° C.
T1 construct: expressed in transfected cells

Rat SERT = molecular target: T2, Rat SERT (Rattus norvegicus, UniProt P31652); experiment: Rat brain SERT binding ([3H]-citalopram displacement); conditions: rat brain membranes without cerebellum, 0.6 nM [3H]-citalopram, 60 min at 25° C.
T2 construct: A rat brain without cerebellum (Zivic Laboratories, Inc.—Pittsburgh, Pa.) was homogenized; tissue Zivic Laboratories, Inc; host or cells: rat brain without cerebellum, membranes
Description: The supernatant was removed and re-centrifuged at 15,000 rpm for 30 min. […] Membranes were incubated with 0.6 nM [^3H]-Citalopram plus/minus test compounds for 60 min at 25° C. and harvested by rapid filtration over GF/C glass fiber filters (pretreated with 0.3% polyethylenimine) followed by four washes with ice-cold buffer.

human SERT = molecular target: T3, human SERT (Homo sapiens, UniProt P31645); experiment: Human SERT binding (3H-citalopram displacement); conditions: HEK293 membranes expressing human SERT, rt 1 h
T3 construct: expressed in transfected cells; host or cells: HEK293 membranes
Description: Homogenized HEK293 (Human Embryonic Kidney) membranes expressing the human SERT were incubated with ^3H-citalopram (SERT) at rt for 1 h in 50 mM Tris, 120 mM NaCl, 5 mM KCl (pH 7.4). […] The membranes were washed and the radioactivity was counted as above.

T2 sequence (P31652 whole entry): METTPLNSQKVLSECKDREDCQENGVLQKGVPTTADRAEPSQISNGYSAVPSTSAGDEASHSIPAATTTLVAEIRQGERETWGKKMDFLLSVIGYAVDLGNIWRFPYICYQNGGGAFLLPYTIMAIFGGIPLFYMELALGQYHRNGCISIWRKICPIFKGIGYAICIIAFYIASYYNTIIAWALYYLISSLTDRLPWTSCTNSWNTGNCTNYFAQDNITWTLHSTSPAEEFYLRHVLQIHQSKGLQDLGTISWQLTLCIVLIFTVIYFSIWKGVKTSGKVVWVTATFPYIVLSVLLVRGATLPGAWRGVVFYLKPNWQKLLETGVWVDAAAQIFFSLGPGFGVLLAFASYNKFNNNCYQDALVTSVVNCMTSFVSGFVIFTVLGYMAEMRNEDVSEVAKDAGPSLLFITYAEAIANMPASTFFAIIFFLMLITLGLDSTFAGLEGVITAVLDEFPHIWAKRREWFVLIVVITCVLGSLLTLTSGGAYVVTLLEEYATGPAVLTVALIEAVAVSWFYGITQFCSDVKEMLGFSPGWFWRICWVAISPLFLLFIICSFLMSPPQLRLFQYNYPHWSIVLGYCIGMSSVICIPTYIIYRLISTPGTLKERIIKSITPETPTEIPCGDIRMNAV
T3 sequence (P31645 whole entry): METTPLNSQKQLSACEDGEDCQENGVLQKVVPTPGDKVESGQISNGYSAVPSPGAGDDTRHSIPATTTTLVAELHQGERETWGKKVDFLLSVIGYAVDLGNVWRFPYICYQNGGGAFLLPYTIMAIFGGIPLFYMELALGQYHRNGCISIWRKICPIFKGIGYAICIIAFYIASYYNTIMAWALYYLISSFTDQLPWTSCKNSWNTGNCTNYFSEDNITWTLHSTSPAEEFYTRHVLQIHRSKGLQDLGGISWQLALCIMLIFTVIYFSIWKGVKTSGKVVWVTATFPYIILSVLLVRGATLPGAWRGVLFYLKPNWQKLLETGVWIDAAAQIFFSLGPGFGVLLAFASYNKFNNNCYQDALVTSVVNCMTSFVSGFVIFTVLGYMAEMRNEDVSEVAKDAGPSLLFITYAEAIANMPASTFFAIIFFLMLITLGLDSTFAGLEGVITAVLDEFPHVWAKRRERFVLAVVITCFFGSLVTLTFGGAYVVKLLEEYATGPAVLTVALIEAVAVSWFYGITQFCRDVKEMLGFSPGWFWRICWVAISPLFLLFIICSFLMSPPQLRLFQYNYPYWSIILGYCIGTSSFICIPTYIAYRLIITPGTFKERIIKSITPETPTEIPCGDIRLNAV
T1 sequence (Q9Y5N1 whole entry): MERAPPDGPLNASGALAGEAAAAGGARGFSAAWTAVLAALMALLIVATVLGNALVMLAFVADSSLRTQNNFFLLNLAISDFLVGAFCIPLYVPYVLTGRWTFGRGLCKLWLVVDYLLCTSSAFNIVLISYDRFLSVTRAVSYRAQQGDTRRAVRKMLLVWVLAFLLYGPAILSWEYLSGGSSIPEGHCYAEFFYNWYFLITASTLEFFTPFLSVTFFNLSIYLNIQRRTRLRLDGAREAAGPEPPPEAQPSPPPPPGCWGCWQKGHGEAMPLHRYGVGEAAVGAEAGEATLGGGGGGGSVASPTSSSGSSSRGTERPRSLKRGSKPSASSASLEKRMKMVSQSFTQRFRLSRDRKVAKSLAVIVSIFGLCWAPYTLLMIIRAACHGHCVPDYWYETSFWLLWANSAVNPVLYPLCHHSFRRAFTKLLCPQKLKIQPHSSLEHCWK

SMILES: COc1ccc(C2CN(C)Cc3cc(OCCCN4CCC(F)(F)C4)ccc32)cc1 (stereo not drawn) [Example 129, 7-[3-(3,3-Difluoro-pyrrolidin-1-yl)-propoxy]-4-(4-methoxy-phenyl)-2-methyl-1,2,3,4-tetrahydro-isoquinoline]
- Ki (human H3 receptor): 14 nM
- Ki (Rat SERT; read-out: Rat SERT Ki): 7 nM
- Ki (human SERT): 5 nM

SMILES: CCN1CCN(CCCOc2ccc3c(c2)CN(C)CC3c2ccc(OC)cc2)CC1 (stereo not drawn) [Example 198, 7-[3-(4-Ethyl-piperazin-1-yl)-propoxy]-4-(4-methoxy-phenyl)-2-methyl-1,2,3,4-tetrahydro-isoquinoline]
- Ki (human H3 receptor): 10 nM
- Ki (Rat SERT; read-out: Rat SERT Ki): 2 nM
- Ki (human SERT): 2 nM

SMILES: COc1ccc(C2CN(C)Cc3cc(OCC4CN(C5CC5)CCO4)ccc32)cc1 (mixture of isomers) [Example 259, 7-(4-Cyclopropyl-morpholin-2-ylmethoxy)-4-(4-methoxy-phenyl)-2-methyl-1,2,3,4-tetrahydro-isoquinoline]
- Ki (human H3 receptor): 13 nM
- Ki (Rat SERT; read-out: Rat SERT Ki): 13 nM
- Ki (human SERT): 22 nM

SMILES: COCCN(CCCOc1ccc2c(c1)CN(C)CC2c1ccc(OC)cc1)CCOC (stereo not drawn) [Example 17, Bis-(2-methoxy-ethyl)-{3-[4-(4-methoxy-phenyl)-2-methyl-1,2,3,4-tetrahydro-isoquinolin-7-yloxy]-propyl}-amine]
- Ki (human H3 receptor): 273 nM
- Ki (Rat SERT; read-out: Rat SERT Ki): 10 nM
- Ki (human SERT): 7 nM

SMILES: COc1ccc(C2CN(C)Cc3cc(OCCCN4CCCC(C(F)(F)F)C4)ccc32)cc1 (stereo not drawn) [Example 25, 4-(4-Methoxy-phenyl)-2-methyl-7-[3-(3-trifluoromethyl-piperidin-1-yl)-propoxy]-1,2,3,4-tetrahydro-isoquinoline]
- Ki (human H3 receptor): 7 nM
- Ki (Rat SERT; read-out: Rat SERT Ki): 10 nM
- Ki (human SERT): 6 nM

SMILES: COc1ccc(C2CN(C)Cc3cc(CCCCN4CCOCC4)ccc32)cc1 (stereo not drawn) [Example 281, 4-(4-Methoxy-phenyl)-2-methyl-7-(4-morpholin-4-yl-butyl)-1,2,3,4-tetrahydro-isoquinoline]
- Ki (human H3 receptor): 23 nM
- Ki (Rat SERT; read-out: Rat SERT Ki): 6 nM
- Ki (human SERT): 8 nM

SMILES: COc1ccc(C2CN(C)Cc3cc(OC4CCN(C(C)C)CC4)ccc32)cc1 (stereo not drawn) [Example 117, 7-(1-Isopropyl-piperidin-4-yloxy)-4-(4-methoxy-phenyl)-2-methyl-1,2,3,4-tetrahydro-isoquinoline]
- Ki (human H3 receptor): 1 nM
- Ki (Rat SERT; read-out: Rat SERT Ki): 9 nM
- Ki (human SERT): 10 nM

SMILES: C[C@H]1COCCN1CCCOc1ccc2c(c1)CN(C)CC2c1ccc(C#N)cc1 (stereo partly drawn) [Example 135, 4-{2-Methyl-7-[3-(3S-methyl-morpholin-4-yl)-propoxy]-1,2,3,4-tetrahydro-isoquinolin-4-yl}-benzonitrile]
- Ki (human H3 receptor): 2 nM
- Ki (Rat SERT; read-out: Rat SERT Ki): 27 nM
- Ki (human SERT): 15 nM

SMILES: CN1Cc2cc(OCCCN3CCC(F)CC3)ccc2C(c2ccc(C#N)cc2)C1 (stereo not drawn) [Example 136, 4-{7-[3-(4-Fluoro-piperidin-1-yl)-propoxy]-2-methyl-1,2,3,4-tetrahydro-isoquinolin-4-yl}-benzonitrile]
- Ki (human H3 receptor): 4 nM
- Ki (Rat SERT; read-out: Rat SERT Ki): 9 nM
- Ki (human SERT): 20 nM

SMILES: COc1ccc(C2CN(C)Cc3cc(C#CCCN4CCOCC4)ccc32)cc1 (stereo not drawn) [Example 276, 4-(4-Methoxy-phenyl)-2-methyl-7-(4-morpholin-4-yl-but-1-ynyl)-1,2,3,4-tetrahydro-isoquinoline]
- Ki (human H3 receptor): 86 nM
- Ki (Rat SERT; read-out: Rat SERT Ki): 18 nM
- Ki (human SERT): 9 nM

SMILES: COc1ccc(C2CN(C)Cc3cc(OCCCN4CCCC4C)ccc32)cc1 (stereo not drawn) [Example 35, 4-(4-Methoxy-phenyl)-2-methyl-7-[3-(2-methyl-pyrrolidin-1-yl)-propoxy]-1,2,3,4-tetrahydro-isoquinoline]
- Ki (human H3 receptor): 1 nM
- Ki (Rat SERT; Rat SERT Ki (nM)): 2 nM
- Ki (human SERT): 3 nM

SMILES: COc1ccc(C2CN(C)Cc3cc(OCCCN4CCC(F)CC4)ccc32)cc1F (racemic) [Example 142, 4-(3-Fluoro-4-methoxy-phenyl)-7-[3-(4-fluoro-piperidin-1-yl)-propoxy]-2-methyl-1,2,3,4-tetrahydro-isoquinoline]
- Ki (human H3 receptor): 3 nM
- Ki (Rat SERT; read-out: Rat SERT Ki): 4 nM
- Ki (human SERT): 7 nM
